Tests used:
Assay type in all cases: cell-based
Conditions in all cases: 72 h; human CD4+ T cells under TH17-polarizing conditions, 3 days, supernatant ELISA, 0.1% DMSO
IL-17A = experiment: Human TH17 cytokine inhibition measured by ELISA: IL-17A
Procedure: (§1) Human TH17 Cytokine Inhibition as Measured by ELISA
(§2) Peripheral blood mononuclear cells (PBMCs) were sourced from freshly prepared leukocyte enriched plasma (buffy coat) from healthy donors (New York Blood Center). PBMCs were isolated by density gradient centrifugation using Ficoll-Paque™ PLUS (GE Healthcare). Human CD4+ T cells were seeded into 96-well plates (5×10^4 cells/well) and activated with plate-bound anti-human (h)-CD3 antibody and soluble h-aCD28 (both at lug/ml; eBioscience) and differentiated into TH17 cells with 20 ng/mL h-IL-6, 5 ng/mL h-TGF-β1, 10 ng/mL h-IL-23 (eBioscience) and 10 ng/mL IL-1β (Miltenyi Biotec) in serum-free TexMACS Medium (Miltenyi Biotec) supplemented with 1% Penicillin/Streptomycin (Lonza) for 3 days. CD4+ T cells propagated under TH17-polarizing conditions were cultured in the presence or absence of various concentrations of compounds with a final concentration of 0.1% DMSO. Supernatants were collected and stored at −20° C. until assayed for IL-17A, IL-17F and IL-21 levels by “Ready-Set-Go” ELISA kits (eBioscience) as per manufacturer's instructions. Endpoint absorbance was read at 450 nm using a microplate reader (Perkin Elmer).

IL-17F = experiment: Human TH17 cytokine inhibition measured by ELISA: IL-17F
Procedure: as §1, §2

IL-22 = experiment: Human TH17 cytokine inhibition measured by ELISA: IL-22
IL-21 = experiment: Human TH17 cytokine inhibition measured by ELISA: IL-21
Procedure: as §1, §2

Structure (SMILES) | IC50 (IL-17A) | IC50 (IL-17F) | IC50 (IL-22) | IC50 (IL-21)
O=C(c1ccccc1)N1CCC(Cn2cnc3cc(-c4cn[nH]c4)ccc32)CC1 [Example 7, (4-((5-(1H-pyrazol-4-yl)-1H-benzo[d]imidazol-1-yl)methyl)piperidin-1-yl)(phenyl)methanone] | > 10 µM | < 10 µM | < 10 µM | < 10 µM
O=C(Cc1ccccc1)N1CCC(Cn2cnc3cc(-c4cn[nH]c4)ccc32)CC1 [Example 8] | > 10 µM | < 10 µM | < 10 µM | < 10 µM
O=C(CCc1ccccc1)N1CCC(Cn2cnc3cc(-c4cn[nH]c4)ccc32)CC1 [Example 9, 1-(4-((5-(1H-pyrazol-4-yl)-1H-benzo[d]imidazol-1-yl)methyl)piperidin-1-yl)-3-phenylpropan-1-one] | < 10 µM | < 10 µM | < 10 µM | < 10 µM
O=C(CC1CCCCC1)N1CCC(Cn2cnc3cc(-c4cn[nH]c4)ccc32)CC1 [Example 10] | < 10 µM | < 10 µM | < 10 µM | < 10 µM
O=S(=O)(c1ccccc1)N1CCC(Cn2cnc3cc(-c4cn[nH]c4)ccc32)CC1 [Example 11, 1-((1-(phenylsulfonyl)piperidin-4-yl)methyl)-5-(1H-pyrazol-4-yl)-1H-benzo[d]imidazole] | < 10 µM | < 10 µM | < 10 µM | < 10 µM
O=S(=O)(Cc1ccccc1)N1CCC(Cn2cnc3cc(-c4cn[nH]c4)ccc32)CC1 [Example 12, 1-((1-(benzylsulfonyl)piperidin-4-yl)methyl)-5-(1H-pyrazol-4-yl)-1H-benzo[d]imidazole] | < 10 µM | < 10 µM | < 10 µM | > 10 µM

Reference: patent US20160024052A1, “BENZIMIDAZOLE RETINOIC ACID RECEPTOR-RELATED ORPHAN RECEPTOR MODULATORS AND USES THEREOF” (INNOV17 LLC, priority 2014, published 2016)
